Test results from paper PMC7932537, “Quantitative profiling of protease specificity” (PLoS Computational Biology, 2021).

Columns and labels:
MMP-9 = assay: Substrate phage display with NGS: relative probability (RP) of P3-P1' tetramer clusters; type: biochemical, human; settings: for relative_probability: tetramer clusters unique to the MMP-9 selectome, MMP-9 RP
MMP-2 = assay: as above; type: biochemical, human; settings: for relative probability (RP) of matching tetramer: P3-P1' tetramer matching the MS detected MMP2 cleavage sequence, RP_above_4.5
[1] = RP of the P3-P1' tetramer in MMP-9 substrate phage display/NGS, tetramer annotation of MMP-9 cleavage sites (octamers P4-P4') collected in MEROPS database
[2] = rank of the P3-P1' tetramer by RP in MMP-9 substrate phage display/NGS, tetramer annotation of MMP-9 cleavage sites (octamers P4-P4') collected in MEROPS database
[3] = MMP9, RP of matching P3-P1' tetramer, common set of MMP2-9 selectome
[4] = MMP2, RP of matching P3-P1' tetramer, common set of MMP2-9 selectome, RP above KL threshold
[5] = MMP9, RP of the P3-P1' tetramer matching the MS detected cleavage, RP above 4.7, substrate phage display with NGS
[6] = tetramer annotation of MMP-9 cleavage sites in physiologic substrates from MEROPS
[7] = RP according to MMP9, P3-P1' tetramer of unique physiologic MMP9 substrates from MEROPS
[8] = tetramer projected onto MMP-9 cleavage sites determined by Prudova et al. (2010)
[9] = tetramer probability in MMP9 set / naive library, 200 nM protease, 2 h, 37°C

Substance: AAAA
- relative probability (RP) (MMP-9; [1]): 0.34
- Relative probability (RP) rank (MMP-9; [2]): 31285

Substance: AAAI
- relative probability (RP) (acc.to MMP9) (MMP-9; [3]): 15.73
- relative probability (RP) (acc.to MMP2) (MMP-2; [4]): 25.49
- relative probability (RP) of matching tetramer (MMP-2): 25.49

Substance: AAAK
- relative probability (RP) (MMP-9; [1]): 0
- Relative probability (RP) rank (MMP-9; [2]): 91823

Substance: AAAL
- relative probability (RP) (acc.to MMP9) (MMP-9; [3]): 32.12
- relative probability (RP) (MMP-9; [5]): 32.12
- relative probability (RP) (acc.to MMP9) (MMP-9; RP of matching tetramer, common MMP2-9 selectome, RP above KL threshold): 32.12
- relative probability (RP) (acc.to MMP2) (MMP-2; [4]): 31.4
- relative probability (RP) of matching tetramer (MMP-2): 31.4
- relative probability (RP) (acc.to MMP2) (MMP-2; RP of matching tetramer, common MMP2-9 selectome): 31.4
- relative probability (RP) (MMP-2; tetramer annotation of MMP-2 cleavage sites in all substrates from MEROPS): 31.4

Substance: AAAM
- relative probability (RP) (acc.to MMP9) (MMP-9; [3]): 23.49
- relative probability (RP) (acc.to MMP2) (MMP-2; [4]): 23.42
- relative probability (RP) of matching tetramer (MMP-2): 23.42

Substance: AAAY
- relative probability (RP) (MMP-9; [1]): 22.04
- Relative probability (RP) rank (MMP-9; [2]): 2070

Substance: AAGV
- relative probability (RP) (acc.to MMP9) (MMP-9; RP of the P3-P1' tetramer, MMP9 substrate phage display/NGS, tetramers of physiologic MEROPS substrates common to MMP2 and MMP9): 0.05
- relative probability (RP) (acc.to MMP2) (MMP-2; RP of the P3-P1' tetramer, MMP2 substrate phage display/NGS, tetramers of physiologic MEROPS substrates common to MMP2 and MMP9): 0.76

Substance: AKRF
- relative probability (RP) (MMP-9; [6]): 0.43

Substance: FFPF
- relative probability (RP) (MMP-9; [6]): 0.33

Substance: GVMQ
- Relative probability (RP) rank (MMP-9; [7]): 91467
- relative probability (RP) (MMP-9; [7]): 0

Substance: IIGL
- Relative probability (RP) rank (MMP-9; [7]): 15777
- relative probability (RP) (MMP-9; [7]): 0.98

Substance: IRYV
- relative probability (RP) (MMP-9; [5]): 10.4

Substance: ITPL [P3-P1' tetramer cluster]
- relative probability (RP) (MMP-9; [8]): 0.92

Substance: IYYI
- relative probability (RP) (MMP-9; [5]): 14.54

Substance: PAPL [P3-P1' tetramer cluster]
- relative probability (RP) (MMP-9; [8]): 46.24

Substance: PDHL
- relative probability (RP) (MMP-9; [5]): 13.06

Substance: PFAS
- relative probability (RP) (MMP-9; [5]): 24.05

Substance: PFAV [P3-P1' tetramer cluster]
- relative probability (RP) (MMP-9; [8]): 43.58

Substance: PFKI
- relative probability (RP) (MMP-9; [5]): 34.84

Substance: PFPL [P3-P1' tetramer cluster]
- relative probability (RP) (MMP-9; [8]): 49.54

Substance: PFSV [P3-P1' tetramer cluster]
- relative probability (RP) (MMP-9; [8]): 31.92

Substance: PKAS [P3-P1' tetramer cluster]
- relative probability (RP) (MMP-9; [8]): 25.84

Substance: PKGE [P3-P1' tetramer cluster]
- relative probability (RP) (MMP-9; [8]): 0

Substance: PMAA
- relative probability (RP) (MMP-9; [5]): 16.94

Substance: PMPL [P3-P1' tetramer cluster]
- relative probability (RP) (MMP-9; [9]): 51.2509

Substance: PMWM [P3-P1' tetramer cluster]
- relative probability (RP) (MMP-9; [9]): 52.3808

Substance: PRGI [P3-P1' tetramer cluster]
- relative probability (RP) (MMP-9; [8]): 47.2

Substance: PRLV
- relative probability (RP) (MMP-9; [5]): 7.12

Substance: PSGI [P3-P1' tetramer cluster]
- relative probability (RP) (MMP-9; [8]): 45.03

Substance: PVGI [P3-P1' tetramer cluster]
- relative probability (RP) (MMP-9; [8]): 46.04

Substance: PVGV [P3-P1' tetramer cluster]
- relative probability (RP) (MMP-9; [8]): 34.33

Substance: PVPQ [P3-P1' tetramer cluster]
- relative probability (RP) (MMP-9; [8]): 29.84

Substance: PWAQ [P3-P1' tetramer cluster]
- relative_probability (MMP-9): 41.83

Substance: PWMI [P3-P1' tetramer cluster]
- relative_probability (MMP-9): 41.91

Substance: PWMM [P3-P1' tetramer cluster]
- relative_probability (MMP-9): 46.92

Substance: PWPH
- relative probability (RP) (MMP-9; [5]): 15.08

Substance: PWWI [P3-P1' tetramer cluster]
- relative_probability (MMP-9): 43.44

Substance: PWWM [P3-P1' tetramer cluster]
- relative_probability (MMP-9): 45.99
